This is an account of results in US10004786B2 (Zealand Pharma A/S, priority 2009, dated 2018).

Usually half-life stands for how long it takes for the measured level to halve.

Common to all, as to type: in vivo
Data set [1] can be described thus: Food intake in young lean and old obese C57BL/6J mice. The note with it: s.c. at t=0 h and t=12 h, p<0.05 versus vehicle. The method, then: C57BL/6J mice were on a high fat diet for 11 days and C57BL/6J mice were on a high fat diet for 52 weeks.
3 days before study, the mice were transferred to individual cages and weighed. 4 days before study, they were acclimatized to handling and treatment by daily s.c. injections. On the day before the experiment food was removed at 20:00. […] Immediately after treatment (t=0), pre-weighed food were introduced to the mice and the cumulative food intake was measured by weighing the remaining food after t=1, 2, 4, 8, 12 and 24 hours. After weighing the food and the animals at t=24 h, the mice were sacrificed by cervical dislocation.
Immediately after treatment (t=0), pre-weighed food were introduced to the mice and the cumulative food intake was measured by weighing the remaining food after t=1, 2, 4, 8, 12 and 24 hours.

Data set [2] is described as follows: Total cholesterol and HDL/LDL ratio in Diet Induced Obese (DIO) mice. The note with it: 4 weeks, 12.7 nmol/kg, plasma, P<0.0001. The method, then:
The assay is an enzymatic colorimetric method. In the presence of magnesium ions, dextran sulfate selectively forms water-soluble complexes with LDL, VLDLA and chylomicrons, which are resistant to PEG-modified enzymes. The HDL cholesterol is determined enzymatically by cholesterol esterase and cholesterol oxidase coupled with PEG to the amino groups. Cholesterol esters are broken down quantitatively to free cholesterol and fatty acids. HDL cholesterol is enzymatically oxidized to choles-4-en-3-one and H2O2, and the formed H2O2 is measured colorimetrically (Cobas®; Application note HDLC3).
The direct determination of LDL takes advantage of the selective micellary solubilization of LDL by a nonionic detergent and the interaction of a sugar compound and lipoproteins (VLDL and chylomicrons). The combination of a sugar compound with detergent enables the selective determination of LDL in plasma. […] Free cholesterol is then oxidized and the formed H2O2 is measured colorimetrically (Application note LDL_C, Cobas®).
Diet Induced Obese (DIO) mice were treated with vehicle or compound 7 for 4 weeks and plasma prepared from the collected blood samples. The total cholesterol, LDL and HDL were determined in each plasma sample (Cobas® application notes: CHOL2, HDLC3 and LDL_C) and results are shown in FIGS. 5 and 6.

Data set [3] in a line: Body weight gain in high fat fed C57BL/6J mice (10 days). The note with it: 5 nmol/kg b.i.d. s.c., short term high fat-fed C57BL/6J mice. The procedure, abridged: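 Male C57Bl/6J mice fed high fat diet for 4 weeks from 6 weeks of age, vehicle-acclimatized 3 days, then dosed b.i.d. s.c. with peptide at 0.5 and 5 nmol/kg or vehicle. Doses corrected to daily body weights, which were recorded throughout.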

Data set [4] can be described thus: Oral glucose tolerance 2, 4, 6, 8, 10 and 12 h after dosing in high fat fed mice. The note with it: 10 nmol/kg s.c. single dose, high fat fed C57BL/6J mice. The procedure: C57Bl/6J male mice, 6 weeks old, were acclimatized to their new environment with free access to a high fat diet (D12492, Research Diet Inc., New Brunswick, USA) and water. The animals were injected s.c. with vehicle for a period of three days to acclimatize the animals to handling and injections. Blood samples were taken from the tip of the tail and blood glucose measured. The blood glucose (mM) concentration was analyzed by the immobilized glucose oxidase method using a drop of blood (<5 μl; Contour Autoanalyser, Bayer, Denmark) following the manufacturer's manual. After 4 weeks on the high fat diet the animals were weighed and the body weight was used to administer a body weight-corrected dose of peptide. An oral glucose tolerance test (OGTT) was performed after subjecting the animals to 4 hours of fasting. At 2, 4, 6, 8, 10 and 12 hours after single peptide or vehicle dosing an initial blood sample were taken (t=−0 min). Immediately thereafter, an oral dose of glucose (1 g/kg) was given and the animals were returned to their home cages (t=0). BG levels were measured at t=15 min, t=30 min, t=60 min and t=90 min. […]
An oral glucose tolerance test (OGTT) was performed after subjecting the animals to 4 hours of fasting. […] BG levels were measured at t=15 min, t=30 min, t=60 min and t=90 min. […]

Data set [5] in a line: HbA1c in db/db mice after 28 days. The note with it: 4 weeks, 12.7 nmol/kg, P=0.03 Students t-test. The procedure:
Male mice (Long term high fat fed C57Bl/6J, short term high fat fed C57Bl/6J and db/db) were acclimatized with free access to food and water. They were housed in groups of 5-6 in a light-, temperature-, and humidity-controlled room (12-hour light:12-hour dark cycle, lights On/Off at 2000/0800 hour; 24° C.; 50% relative humidity).
The animals were injected s.c. with 100 μl vehicle (once a day) for a period of three days to acclimatize the animals to handling and injections. Blood samples were taken from the eye or from the tip of the tail. The animals were randomized before treatment.
Mice were treated twice daily s.c. with GluGLP-1 agonist or vehicle (injection volume=2.5 ml/kg). Throughout the study, body weights were recorded daily and used to administer the body weight-corrected doses of peptide. Peptide solutions were prepared fresh immediately before dosing. […]
The HbA1c determination is based on Turbidimetric INhibition ImmunoAssay (TINIA) in which HbA1c in the sample reacts with anti-HbA1c to form soluble antigen-antibody complexes. Additions of polyhaptens react with excess anti-HbA1c antibodies to form an insoluble antibody-polyhapten complex, which can be measured turbidimetrically. Liberated hemoglobin in the hemolyzed sample is converted to a derivative having a characteristic absorption spectrum, which is measured bichromatically during the preincubation phases. […]

The nature of data set [6]: Pharmacokinetic screening in mouse plasma after subcutaneous administration. The note with it: sc, mice, 100 nmol/kg s.c., * = only two time points used for calculation. The method, then:
Mice were dosed 100 nmol/kg subcutaneously (s.c.). The mice were sacrificed and the blood collected at the following time points; 0.5, 2, 4, 6, 16 and 24 h. Plasma samples were analyzed using protein precipitation, followed by solid phase extraction (SPE) and liquid chromatography mass spectrometry (LC-MS).
Pharmacokinetic profiles were determined for various acylated compounds.

Each structure is given as a SMILES string.

`CCCCCCCCCCCCCCCC(=O)N[C@@H](CCC(=O)NCCCC[C@H](NC(=O)[C@H](CO)NC(=O)[C@H](CC(=O)O)NC(=O)[C@H](CC(C)C)NC(=O)[C@H](Cc1ccc(O)cc1)NC(=O)[C@H](CCCCN)NC(=O)[C@H](CO)NC(=O)[C@H](Cc1ccc(O)cc1)NC(=O)[C@H](CC(=O)O)NC(=O)[C@H](CO)NC(=O)[C@@H](NC(=O)[C@H](Cc1ccccc1)NC(=O)[C@@H](NC(=O)CNC(=O)[C@H](CCC(N)=O)NC(=O)C(C)(C)NC(=O)[C@@H](N)Cc1c[nH]cn1)[C@@H](C)O)[C@@H](C)O)C(=O)N[C@@H](C)C(=O)N[C@@H](C)C(=O)N[C@@H](Cc1c[nH]cn1)C(=O)N[C@@H](CC(=O)O)C(=O)N[C@@H](Cc1ccccc1)C(=O)N[C@H](C(=O)N[C@@H](CCC(=O)O)C(=O)N[C@@H](Cc1c[nH]c2ccccc12)C(=O)N[C@@H](CC(C)C)C(=O)N[C@@H](CC(C)C)C(=O)N[C@@H](CO)C(=O)N[C@@H](C)C(N)=O)C(C)C)C(=O)O` [Compound 7]: in data set [1] (high fat diet for 52 weeks), the “food intake, old obese mice” value is “reduced food intake during the 0-2, 0-4, 0-8, 0-12 and 0-24 time periods”. Further, the “food intake, young lean mice” value in data set [1] (high fat diet for 11 days) is “reduced food intake during the 0-4, 0-8, 0-12 and 0-24 time periods”. Also, in data set [2], the HDL/LDL-ratio result is listed as “increased the HDL/LDL-ratio” and the total cholesterol concentrations result is listed as “decreased total cholesterol concentrations”. In data set [3], the “body weight gain, high dose” value is “significantly decreased body weight gain at the high dose”. In addition, the “glucose tolerance (AUC during oral glucose tolerance test)” value in data set [4] is given as “significantly improves glucose tolerance”. Besides, the “ΔHbA1c (%) compared to vehicle” value in data set [5] is recorded as “decreased ΔHbA1c (%) significantly”. In addition, the half-life in data set [6] was 3.4 h.
